In patent US8697692B2, “Pyrrolo [3,2-c] pyridine-4-one 2-indolinone protein kinase inhibitors” (Shanghai Hengrui Pharmaceutical Co., Ltd., priority 2006, dated 2014) one finds IC50 data, which are given here for 15 compounds.

SMILES strings stand for the structures.

One assay deals with HUVEC cell. In words: Cell Proliferation Inhibition VEGF-R2 Assay (SRB method). It is filed as cell-based, homo sapient. To be noted: Homo sapiens; HUVEC cells, 72 hours exposure, Sulforhodamine B; read-out: IC50 (VEGFR/HUVEC). A digest of the protocol:
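HUVECs grown to ~85% confluence in DMEM/F12 + 10% FBS, then exposed to 6–7 compound concentrations for 72 h at 37 °C, 5% CO2; vehicle controls received 0.5% DMSO medium.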

The target in assay [1] is T1, recombinant human VEGF-R2 (Homo sapiens, UniProt P35968).
T1 construct: purchased Cell signaling technology #7787
In words: VEGF-R2 Kinase Assay (ELISA). It is filed as biochemical. To be noted: 10 μM ATP, 25° C. 30 minutes, read-out: IC50 (VEGFR/bio). Here is the method: This assay is used to measure the in vitro kinase activity of recombinant human VEGF-R2 in an ELISA assay.
c. Stop Buffer: 50 mM EDTA, pH 8.0.
d. DELFIA® Europium-labeled Anti-mouse IgG (PerkinElmer Life Sciences #AD0124).
f. DELFIA® Streptavidin coated, 96-well, yellow plate (PerkinElmer Life Sciences #AAAND-0005).
k. HTScan™ Tyrosine Kinase Buffer (4×)
The following protocol was used:
1. Dilute test compound with DMSO to the desired final assay concentration.
2. Dilute 6 μM substrate peptide (Tyr87) 1:1 with dH2O, add 15 μl to every assay.
3. Immediately transfer VEGF-R2 enzyme from −80° C. to ice. Allow enzyme to thaw on ice.
4. Take 2.2 μg VEGF-R2 enzyme to the enzyme tube.
6. Transfer 0.75 ml of DTT/Kinase buffer to each enzyme tube to make 4× reaction cocktail. Add 7.5 μl 4× reaction cocktail to every assay.
7. Add 2 μl ATP (10 mM) to 498 μl dH2O, take 7.5 μl for every assay. Final Assay Conditions for a 30 μl Reaction
Incubate reaction tube at 25° C. for 30 minutes. 9. Add 30 μl/assay stop buffer (50 mM EDTA, pH 8.0) to stop the reaction. 10. Transfer 25 μl of each reaction and 75 μl dH2O/well to a 96-well streptavidin coated plate and incubate, with shaking at room temperature for 60 minutes. 11. Wash three times with 200 μl/well PBS-T buffer. Pat plate on paper towel to remove excess liquid. 12. […] Add 100 μl diluted primary antibody to each well. 13. Incubate, with shaking at room temperature for 60 minutes. 14. Wash as described above in step 11. 15. Dilute Europium labeled anti-mouse IgG 1:500 in PBS-T buffer with 1% BSA. Add 100 μl diluted antibody to each well. 16. Incubate, with shaking at room temperature for 30 minutes. 17. Wash five times with 200 μl/well PBS-T buffer. Pat plate on paper towel to remove excess liquid. 18. Add 100 μl/well DELFIA® Enhancement Solution. 19. Incubate, with shaking at room temperature for 5 minutes. 20. Detect 615 nm fluorescence emission with appropriate Time-Resolved Plate Reader.
X=the fluorescence value of the well contained test compound
The IC50 value can be derived from the IRs of compounds at different concentration gradients.

T1 sequence (P35968 20-1356): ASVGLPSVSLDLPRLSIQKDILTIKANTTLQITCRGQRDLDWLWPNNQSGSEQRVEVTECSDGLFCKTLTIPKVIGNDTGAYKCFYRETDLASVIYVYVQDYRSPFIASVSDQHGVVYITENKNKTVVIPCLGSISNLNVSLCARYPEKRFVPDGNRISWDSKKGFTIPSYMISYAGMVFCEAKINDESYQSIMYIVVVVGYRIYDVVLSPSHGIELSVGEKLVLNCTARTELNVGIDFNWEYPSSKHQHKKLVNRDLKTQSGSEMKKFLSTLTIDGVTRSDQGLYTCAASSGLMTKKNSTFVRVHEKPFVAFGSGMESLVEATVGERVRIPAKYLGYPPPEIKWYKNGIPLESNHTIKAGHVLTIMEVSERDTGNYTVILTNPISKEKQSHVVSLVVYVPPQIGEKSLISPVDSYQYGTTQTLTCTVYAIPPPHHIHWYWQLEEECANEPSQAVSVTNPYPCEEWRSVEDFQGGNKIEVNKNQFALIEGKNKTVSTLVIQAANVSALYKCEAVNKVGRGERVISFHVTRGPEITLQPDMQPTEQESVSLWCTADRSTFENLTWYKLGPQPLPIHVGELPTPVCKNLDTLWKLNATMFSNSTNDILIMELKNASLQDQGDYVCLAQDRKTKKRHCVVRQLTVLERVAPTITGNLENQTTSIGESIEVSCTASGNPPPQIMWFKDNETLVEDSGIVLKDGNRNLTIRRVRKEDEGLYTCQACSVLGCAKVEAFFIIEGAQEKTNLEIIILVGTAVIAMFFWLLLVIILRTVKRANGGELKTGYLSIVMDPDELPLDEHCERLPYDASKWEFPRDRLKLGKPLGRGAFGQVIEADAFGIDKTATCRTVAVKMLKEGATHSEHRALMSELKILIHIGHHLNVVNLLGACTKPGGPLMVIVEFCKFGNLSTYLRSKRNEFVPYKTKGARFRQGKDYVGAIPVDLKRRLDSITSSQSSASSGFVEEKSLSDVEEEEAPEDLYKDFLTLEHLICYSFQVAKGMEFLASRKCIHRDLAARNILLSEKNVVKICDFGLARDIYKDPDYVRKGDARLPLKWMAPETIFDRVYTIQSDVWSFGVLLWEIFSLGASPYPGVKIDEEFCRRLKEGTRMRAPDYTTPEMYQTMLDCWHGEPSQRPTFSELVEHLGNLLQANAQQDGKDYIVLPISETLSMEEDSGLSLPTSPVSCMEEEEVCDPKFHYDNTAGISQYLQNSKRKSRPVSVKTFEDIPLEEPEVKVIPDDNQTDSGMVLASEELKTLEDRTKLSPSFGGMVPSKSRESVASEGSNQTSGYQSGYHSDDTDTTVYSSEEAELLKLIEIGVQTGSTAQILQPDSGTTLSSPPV

As for `CCN(CC)CCN1CCc2[nH]c(/C=C3\C(=O)Nc4cccc(Br)c43)c(C)c2C1=O` [Example 30, 2-(4-Bromo-2-oxo-1,2-dihydro-indol-3-ylidenemethyl)-5-(2-diethylamino-ethyl)-3-methyl-1,5,6,7-tetrahydro-pyrrolo[3,2-c]pyridin-4-one], the values for the IC50 (in the assay with HUVEC cell; in assay [1]) were 0.22 µM and 0.094 µM, respectively.

As to `CCN(CC)CCN1CCc2[nH]c(/C=C3\C(=O)Nc4ccc(OC)cc43)c(C)c2C1=O` [Example 35, 5-(2-Diethylamino-ethyl)-2-(5-methoxy-2-oxo-1,2-dihydro-indol-3-ylidenemethyl)-3-methyl-1,5,6,7-tetrahydro-pyrrolo[3,2-c]pyridin-4-one], the IC50 with HUVEC cell came out at 0.13 µM.

For the compound `CCN(CC)CCN1CCc2[nH]c(/C=C3\C(=O)Nc4cccc(C5CCNCC5)c43)c(C)c2C1=O` [Example 31, 5-(2-Diethylamino-ethyl)-3-methyl-2-(2-oxo-4-piperidin-4-yl-1,2-dihydro-indol-3-ylidenemethyl)-1,5,6,7-tetrahydro-pyrrolo[3,2-c]pyridin-4-one], the IC50 in the assay with HUVEC cell is 0.19 µM; in assay [1] it was 0.035 µM.

In the case of `Cc1c(/C=C2\C(=O)Nc3cccc(C4CCNCC4)c32)[nH]c2c1C(=O)N(CCN1CCOCC1)CC2` [Example 52, 3-Methyl-5-(2-morpholin-4-yl-ethyl)-2-(2-oxo-4-piperidin-4-yl-1,2-dihydro-indol-3-ylidenemethyl)-1,5,6,7-tetrahydro-pyrrolo[3,2-c]pyridin-4-one], the IC50 in the assay with HUVEC cell came out at 0.26 µM; in assay [1], 1.27 µM.

As for `CCN(CC)CCN1CCc2[nH]c(/C=C3\C(=O)Nc4cccc(-c5cccc(Cl)c5F)c43)c(C)c2C1=O` [Example 36, 2-[4-(3-Chloro-2-fluoro-phenyl)-2-oxo-1,2-dihydro-indol-3-ylidenemethyl]-5-(2-diethylamino-ethyl)-3-methyl-1,5,6,7-tetrahydro-pyrrolo[3,2-c]pyridin-4-one], the IC50 turned out to be 0.11 µM with HUVEC cell and 0.01 µM in assay [1].

Regarding `CCN(CC)CCN1CCc2[nH]c(/C=C3\C(=O)Nc4cccc(CCO)c43)c(C)c2C1=O` [Example 37, 5-(2-Diethylamino-ethyl)-2-[4-(2-hydroxy-ethyl)-2-oxo-1,2-dihydro-indol-3-ylidenemethyl]-3-methyl-1,5,6,7-tetrahydro-pyrrolo[3,2-c]pyridin-4-one], the IC50 turned out to be 0.11 µM in the assay on HUVEC cell and 0.07 µM in assay [1].

In the case of `Cc1c(/C=C2\C(=O)Nc3ccc(Cl)cc32)[nH]c2c1C(=O)N(CCN1CCOCC1)CC2` [Example 16, 2-(5-Chloro-2-oxo-1,2-dihydro-indol-3-ylidenemethyl)-3-methyl-5-(2-morpholin-4-yl-ethyl)-1,5,6,7-tetrahydro-pyrrolo[3,2-c]pyridin-4-one], the figures for the IC50 (in the assay on HUVEC cell; in assay [1]) were 0.58 µM and 0.044 µM, respectively.

For the compound `Cc1c(/C=C2\C(=O)Nc3cccc(-c4cccc(F)c4F)c32)[nH]c2c1C(=O)N(CCN1CCCC1)CC2` [Example 59, 2-[4-(2,3-Difluoro-phenyl)-2-oxo-1,2-dihydro-indol-3-ylidenemethyl]-3-methyl-5-(2-pyrrolidin-1-yl-ethyl)-1,5,6,7-tetrahydro-pyrrolo[3,2-c]pyridin-4-one], in the assay on HUVEC cell, the IC50 was 0.3 µM.

In the case of `Cc1c(/C=C2\C(=O)Nc3cccc(CCO)c32)[nH]c2c1C(=O)N(CCN1CCOCC1)CC2` [Example 42, 2-[4-(2-Hydroxy-ethyl)-2-oxo-1,2-dihydro-indol-3-ylidenemethyl]-3-methyl-5-(2-morpholin-4-yl-ethyl)-1,5,6,7-tetrahydro-pyrrolo[3,2-c]pyridin-4-one], the IC50 with HUVEC cell is 0.28 µM.

As for `CCN(CC)CCN1CCc2[nH]c(/C=C3\C(=O)Nc4cccc(-c5ccc(Cl)cc5F)c43)c(C)c2C1=O` [Example 34, 2-[4-(4-Chloro-2-fluoro-phenyl)-2-oxo-1,2-dihydro-indol-3-ylidenemethyl]-5-(2-diethylamino-ethyl)-3-methyl-1,5,6,7-tetrahydro-pyrrolo[3,2-c]pyridin-4-one], the IC50 turned out to be 0.12 µM in the assay with HUVEC cell and 0.011 µM in assay [1].

With `Cc1c(/C=C2\C(=O)Nc3ccc(Br)cc32)[nH]c2c1C(=O)N(CCN1CCCC1)CC2` [Example 40, 2-(5-Bromo-2-oxo-1,2-dihydro-indol-3-ylidenemethyl)-3-methyl-5-(2-pyrrolidin-1-yl-ethyl)-1,5,6,7-tetrahydro-pyrrolo[3,2-c]pyridin-4-one], the IC50 in the assay on HUVEC cell was 0.13 µM; in assay [1], 0.047 µM.

With `Cc1c(/C=C2\C(=O)Nc3ncnc(Nc4ccc(F)c(Cl)c4)c32)[nH]c2c1C(=O)N(CCN1CCOCC1)CC2` [Example 24, 4-(3-Chloro-4-fluoro-phenylamino)-5-[3-methyl-5-(2-morpholin-4-yl-ethyl)-4-oxo-4,5,6,7-tetrahydro-1H-pyrrolo[3,2-c]pyridine-2-ylmethylenene]-5,7-dihydro-pyrrolo[2,3-d]pyrimidin-6-one], the IC50 worked out at 2.42 µM in the assay on HUVEC cell and 0.68 µM in assay [1].

For `CCN(CC)CCN1CCc2[nH]c(/C=C3\C(=O)Nc4cccc(-c5cccc(F)c5F)c43)c(C)c2C1=O` [Example 39, 5-(2-diethylamino-ethyl)-2-[4-(2,3-difluoro-phenyl)-2-oxo-1,2-dihydro-indol-3-ylidenemethyl]-3-methyl-1,5,6,7-tetrahydro-pyrrolo[3,2-c]pyridin-4-one], the values for the IC50 (in the assay on HUVEC cell; in assay [1]) were 0.05 µM and 0.0071 µM, respectively.

As for `CCN(CC)CCN1CCc2[nH]c(/C=C3\C(=O)Nc4ncnc(Nc5ccc(F)c(Cl)c5)c43)c(C)c2C1=O` [Example 12, 4-(3-Chlor O-4-fluoro-phenylamino)-5-[5-(2-diethylamino-ethyl)-3-methyl-4-oxo-4,5,6,7-tetrahydro-1H-pyrrolo[3,2-c]pyridine-2-ylmethylene]-5,7-dihydro-pyrrolo[2,3-d]pyrimidin-6-one], the results for the IC50 (in the assay with HUVEC cell; in assay [1]) were 3 µM and 1.89 µM, respectively.

Regarding `Cc1c(/C=C2\C(=O)Nc3ncc(Br)cc32)[nH]c2c1C(=O)N(CCN1CCOCC1)CC2` [Example 50, 2-(5-Bromo-2-oxo-1,2-dihydro-pyrrolo[2,3-b]pyridin-3-ylidenemethyl)-3-methyl-5-(2-morpholin-4-yl-ethyl)-1,5,6,7-tetrahydro-pyrrolo[3,2-c]pyridin-4-one], the IC50 in the assay on HUVEC cell was 1.16 µM.
